# Source: patent publication EP4674425A1, “COMPOSITION FOR TREATING DIABETIC RETINOPATHY, COMPRISING PEPTIDE” (EyebioKorea, Inc., priority 2023, dated 2026)
# Non-standard residues stand in square brackets, D forms with d. No end group written: not given here. Hyp = O=C(O)[C@@H]1C[C@@H](O)CN1; Aib = CC(C)(N)C(=O)O
# Legend:
# [1] = system: oxygen induced retinopathy (OIR) mouse model; experiment: Inhibition of neovascularity in oxygen induced retinopathy mouse model (Isolectin B4 flat mount, fluorescence imaging); assay type: in vivo; settings: eye drops (ED) for 5 days from day 12 to day 16 after birth; versus OIR model group; positive control aflibercept IVT once on day 12; Figures 1 and 2
# Procedure: In order to evaluate the efficacy of the peptide of the present invention in inhibiting neovascularity in an oxygen induced retinopathy (OIR) mouse model, an experiment was performed as follows.
# After stabilizing the mice born with the mother (new born mice) for about 3 to 4 days, they were raised under 75% hyperoxic conditions for 5 days from day 7 to day 11 after birth. Thereafter, they were raised under normoxic conditions until day 17 after birth. Drugs were administered while they were raised under normoxic conditions. The peptide of the present invention (002-175) was administered as eye drops (ED) for 5 days from day 12 to day 16 after birth, and as a positive control group, aflibercept was administered intraocularly (intravitreal injection, IVT) once on day 12 after birth. Thereafter, the mouse eyes were extracted, fixed in 10% formalin for 1 hour, and then flat mounted. The retina was divided into four equal parts centered on the optic nerve, and treated with Isolectin B4 (1 mM CaCl2, 1:200) overnight (O/N). Thereafter, they were spread on a slide glass, sprayed with mounting solution, covered with a cover glass, and photographed under a fluorescence microscope. The fluorescence images of blood vessels in the retina were obtained, and the number and area of new blood vessels and the area of blood vessels were calculated using the imageJ program.
# [2] = system: Streptozotocin (STZ) induced diabetic retinopathy mouse model; experiment: Electroretinography in streptozotocin induced diabetic retinopathy mouse model; assay type: in vivo, C57BL/6 mice; settings: electroretinogram (ERG); eye drops (ED) twice a day for about 17 weeks; versus STZ model group; comparator aflibercept; Figure 3
# Procedure: The streptozotocin induced mouse model is a type 1 diabetes mellitus model that induces diabetes mellitus by injecting the antibiotic streptozotocin (STZ) into the mouse's peritoneum to damage the beta cells that produce insulin in the pancreas. It is one of the models used in diabetic retinopathy research, and it is a model that can confirm the early stage of diabetic retinopathy from the time of onset of diabetes mellitus.
# After fasting for 3-4 hours before administration, 8-week-old C57BL/6 mice were administered with streptozotocin (STZ) dissolved in Na-citrate buffer and buffer at a dose of 50 mg/kg intraperitoneally for 5 days. The drug used at this time was prepared immediately before administration and used quickly. One week after the last STZ intraperitoneal administration, blood glucose was measured, and only mice with blood glucose exceeding 250 mg/dL were determined to be diabetic mice and used in the experiment. The drug was administered as eye drops (ED) twice a day for about 17 weeks starting from the day after model production, and 10 µg was administered intraocularly (intravitreal injection, IVT) once a month. […] The retina was stimulated with a single white light to obtain a response value, and the amplitude from the trough of the a wave to the peak of the b wave was measured, which was evaluated as an index of retinal function.
# db/db mouse model = experiment: Electroretinography in db/db mouse model; assay type: in vivo, db/db mice; settings: electroretinogram (ERG), Figure 4
# Procedure: The drug was administered as eye drops (ED) to 12-week-old db/db mice twice a day (BID) or three times a day (TID) for about 12 weeks. In order to evaluate retinal function, the mice were dark-adapted for more than 12 hours before measuring electroretinogram (ERG), and then the mice were subjected to pupillary dilation and anesthetized, and electrodes were placed on the skin, tail, and cornea to measure ERG. The retina was stimulated with a single white light to obtain a response value, and the amplitude from the trough of the a wave to the peak of the b wave was measured, which was evaluated as an index of retinal function.
# pericytes = experiment: Loss of pericytes in retinal blood vessels of db/db mice (elastase digest, PAS staining); assay type: in vivo; settings: Figures 5 and 6
# From the text: In the early stage of nonproliferative diabetic retinopathy, blood flows into the tissue due to the loss of pericytes surrounding the capillaries, causing the macula to swell. Macular edema is a representative symptom of nonproliferative diabetic retinopathy in which the focus of objects becomes blurred, the field of vision darkens, and visual acuity temporarily decreases. Therefore, in order to evaluate the efficacy of the peptide of the present invention in inhibiting loss of pericytes, an experiment was performed as follows.
# The drug was administered as eye drops (ED) to 12-week-old db/db mice twice a day (BID) or three times a day (TID) for about 12 weeks. In order to evaluate the state of blood vessels in the retina, the eyes of the extracted mice were fixed in 10% formalin for a week. Thereafter, the fixed eye tissue was treated with elastase to separate the retinal blood vessels and PAS staining was performed. The ratio of vascular endothelial cells and pericytes present in the blood vessel walls and the number of acellular blood vessels were quantified to evaluate the permeability of the blood vessels in the retina.
# Akt [3] = experiment: Western blot of retinal tissue, STZ induced diabetic retinopathy mouse model; assay type: in vivo, C57BL/6 mice; settings: about 17 weeks of administration, versus STZ model group, Figure 7
# Procedure: (§1) After fasting for 3-4 hours before administration, 8-week-old C57BL/6 mice were administered with streptozotocin (STZ) dissolved in Na-citrate buffer and buffer at a dose of 50 mg/kg intraperitoneally for 5 days. The drug used at this time was prepared immediately before administration and used quickly. One week after the last STZ intraperitoneal administration, blood glucose was measured, and only mice with blood glucose exceeding 250 mg/dL were determined to be diabetic mice and used in the experiment. The drug was administered as eye drops (ED) twice a day for about 17 weeks starting from the day after model production, and 10 µg was administered intraocularly (intravitreal injection, IVT) once a month. In order to evaluate the expression level of proteins in the retina, retinal tissue was separated from the extracted mouse eyes and treated with RIPA solution to extract proteins in the retina. Western blot was performed to evaluate the expression level of factors related to neovascularization and vascular permeability in the retina.
# [4] = system: vascular endothelial growth factor (VEGF); experiment: as above; assay type: in vivo, C57BL/6 mice; settings: about 17 weeks of administration, versus STZ model group, Figure 7
# Procedure: as §1
# Akt [5] = experiment: Western blot of retinal tissue, db/db mouse model; assay type: in vivo, db/db mice; settings: eye drops three times a day (TID) for about 12 weeks, versus db/db mouse group, Figure 9
# Procedure: (§2) The drug was administered as eye drops (ED) to 12-week-old db/db mice twice a day (BID) or three times a day (TID) for about 12 weeks. In order to evaluate the expression level of proteins in the retina, retinal tissue was separated from the extracted mouse eyes and treated with RIPA solution to extract proteins in the retina. Western blot was performed to evaluate the expression level of factors related to neovascularization and vascular permeability in the retina.
# COX-2 = experiment: Western blot of retinal tissue, db/db mouse model; assay type: in vivo, db/db mice; settings: eye drops three times a day (TID) for about 12 weeks, versus db/db mouse group, Figure 10
# Procedure: as §2
# JNK = experiment: Western blot of retinal tissue, db/db mouse model; assay type: in vivo, db/db mice; settings: eye drops BID or TID for about 12 weeks, versus db/db mouse group, Figure 11
# Procedure: as §2
# [6] = system: vascular endothelial growth factor (VEGF); experiment: Western blot of retinal tissue, db/db mouse model; assay type: in vivo, db/db mice; settings: eye drops three times a day (TID) for about 12 weeks, versus db/db mouse group, Figure 8
# Procedure: as §2
# [7] = system: zebrafish retinal blood vessels; experiment: Inhibition of retinal vasodilation in zebrafish diabetic retinopathy model (fluorescence microscopy); assay type: in vivo, zebrafish Tg[flk:EGFP]; settings: Figures 12 and 13
# Procedure: Among the embryos obtained by mating adult zebrafish Tg[flk:EGFP], embryos expressing a fluorescent protein were selected and used. On the 6th day after fertilization, the embryos were treated with glucose and the peptide of the present invention (002-175) for 4 days, and then euthanized by adding 4 mg/ml of Tricane. After fixing with 4% paraformaldehyde for 3 days, the eyeballs were separated using 3% trypsin, and the changes in the blood vessels in the separated eyeballs were observed using a fluorescence microscope.
# IL-1β [8] = experiment: Gene expression by microarray in zebrafish diabetic retinopathy model; assay type: in vivo, zebrafish Tg[flk:EGFP]; settings: eyeball RNA, 4 days treatment with glucose and peptide, Figure 14
# Procedure: (§3) Among the embryos obtained by mating adult zebrafish Tg[flk:EGFP], embryos expressing a fluorescent protein were selected and used. On the 6th day after fertilization, the embryos were treated with glucose and the peptide of the present invention (002-175) for 4 days, and then euthanized by adding 4 mg/ml of Tricane. The eyeballs were extracted, and RNA was extracted and analyzed using microarray. In addition, Trizol was added to the extracted eyeballs, and the tissue was homogenized to extract mRNA. The extracted mRNA was quantified using a NanoDrop spectrophotometer, and cDNA was synthesized using RNA with a purity of 1.8 or higher. The synthesized cDNA was subjected to polymerization reaction of SYBR Green Master Mix, primers, and genes, and the concentration of each gene was divided by GAPDH to obtain the corrected concentration of the gene.
# MMP9 [9] = experiment: as above; assay type: in vivo, zebrafish Tg[flk:EGFP]; settings: eyeball RNA, 4 days treatment with glucose and peptide, Figure 14
# Procedure: as §3
# NF-kB [10] = experiment: as above; assay type: in vivo, zebrafish Tg[flk:EGFP]; settings: eyeball RNA, 4 days treatment with glucose and peptide, Figure 14
# Procedure: as §3
# IL-1β [11] = experiment: Gene expression by real-time PCR in zebrafish diabetic retinopathy model; assay type: in vivo, zebrafish Tg[flk:EGFP]; settings: corrected by GAPDH, eyeball mRNA, Figure 15
# Procedure: as §3
# MMP9 [12] = experiment: as above; assay type: in vivo, zebrafish Tg[flk:EGFP]; settings: corrected by GAPDH, eyeball mRNA, Figure 15
# Procedure: as §3
# NF-kB [13] = experiment: as above; assay type: in vivo, zebrafish Tg[flk:EGFP]; settings: corrected by GAPDH, eyeball mRNA, Figure 15
# Procedure: as §3
# ikkα = experiment: as above; assay type: in vivo, zebrafish Tg[flk:EGFP]; settings: corrected by GAPDH, eyeball mRNA, Figure 15
# Procedure: as §3
# ikkβ = experiment: as above; assay type: in vivo, zebrafish Tg[flk:EGFP]; settings: corrected by GAPDH, eyeball mRNA, Figure 15
# Procedure: as §3
# ikkγ = experiment: as above; assay type: in vivo, zebrafish Tg[flk:EGFP]; settings: corrected by GAPDH, eyeball mRNA, Figure 15
# Procedure: as §3
# [14] = system: TUNEL positive cells in the inner nuclear layer (INL) of the retina; experiment: TUNEL assay in retinal tissue, zebrafish diabetic retinopathy model; assay type: in vivo; settings: versus high glucose group, Figures 16 and 17
# Procedure: (§4) On the 6th day after fertilization (6dpf, 6 days post-fertilization), zebrafish fry were fixed with 4% paraformaldehyde for 3-4 hours, and then treated with 30% sucrose, and treated overnight at 4°C. O.C.T blocks were made, and sections were performed, and then TUNEL staining and immunofluorescence (IF) staining were performed.
# GFAP = experiment: Immunofluorescence (IF) staining of zebrafish eye, diabetic retinopathy model; assay type: in vivo; settings: outer nuclear layer (ONL) of the retina; versus high glucose group; Figures 16 and 17
# Procedure: as §4
# VEGF = experiment: as above; assay type: in vivo; settings: outer nuclear layer (ONL) of the retina; versus high glucose group; Figures 16 and 17
# Procedure: as §4
# ZO-1 = experiment: as above; assay type: in vivo; settings: tight junction protein; versus high glucose group; Figures 16 and 17
# Procedure: as §4
# [15] = eye drops (ED) BID or TID for about 12 weeks, versus db/db mouse group
# [16] = eye drops three times a day (TID) for about 12 weeks
substance,measurement,setting,value
[Hyp]GQE[Aib]LA [002-175],area of new blood vessels,[1],decrease in the area of new blood vessels to a level similar to that of the group administered with aflibercept
same,amplitude of the a wave and the b wave,[2],increase in the amplitude of the a wave and the b wave to a level similar to that of the group administered with aflibercept
same,amplitude of the a wave and the b wave,db/db mouse model; [15],increase in the amplitude of the a wave and the b wave
same,"amplitude of the a wave and the b wave, effect of TID compared with BID",db/db mouse model; [16],more excellent effect compared to the group administered twice a day (BID)
same,pericytes,pericytes; [15],inhibition of the decrease in pericytes
same,"pericytes, effect of TID compared with BID",pericytes; [16],more excellent effect compared to the group administered twice a day (BID)
same,phosphorylation level of Akt,Akt [3],decrease in the phosphorylation level of Akt
same,expression of vascular endothelial growth factor (VEGF),[4],decrease in the expression of vascular endothelial growth factor
same,phosphorylation level of Akt,Akt [5],decrease in the phosphorylation level of Akt
same,expression of COX-2,COX-2,decrease in the expression of COX-2
same,phosphorylation level of JNK,JNK,decrease in the phosphorylation level of JNK
same,expression of vascular endothelial growth factor (VEGF),[6],decrease in the expression of vascular endothelial growth factor
same,diameter of retinal blood vessels,"[7]; 100 µg/ml, 4 days, high glucose (130 mM glucose)",decrease in the diameter of retinal blood vessels to a level similar to that of the normal group
same,diameter of retinal blood vessels,"[7]; 200 µg/ml, 4 days, high glucose (130 mM glucose)",decrease in the diameter of retinal blood vessels to a level similar to that of the normal group
same,diameter of retinal blood vessels,"[7]; treated with glucose and peptide for 4 days from 6th day after fertilization, versus high glucose (130 mM glucose) group",decrease in the diameter of retinal blood vessels
same,gene expression of IL-1β,IL-1β [8],decrease in the gene expression
same,gene expression of MMP9,MMP9 [9],decrease in the gene expression
same,gene expression of NF-kB,NF-kB [10],decrease in the gene expression
same,gene expression of IL-1β,IL-1β [11],decrease in the gene expression
same,gene expression of MMP9,MMP9 [12],decrease in the gene expression
same,gene expression of NF-kB,NF-kB [13],decrease in the gene expression
same,gene expression of ikkα,ikkα,decrease in the gene expression
same,gene expression of ikkβ,ikkβ,decrease in the gene expression
same,gene expression of ikkγ,ikkγ,decrease in the gene expression
same,TUNEL positive cells,[14],decrease in TUNEL positive cells
same,expression of GFAP,GFAP,decrease in the expression of VEGF and GFAP
same,expression of VEGF,VEGF,decrease in the expression of VEGF and GFAP
same,expression of ZO-1,ZO-1,increase in expression and a recovery pattern
